Test results reported in ChEMBL document CHEMBL5137099, “Discovery of Novel cccDNA Reducers toward the Cure of Hepatitis B Virus Infection” (J Med Chem, 2022).
Activity calls are given as the source filed them. The calls are words filed in the database; no cut-off is given here.

Key:
[1] = Cmax in C3H/J mouse plasma at 5 mg/kg, po by LC-MS/MS analysis; type: ADME, organism-based; design: dose 5 mg/kg, route po
[2] = fCmax in HBVcircle mouse model at 100 mg/kg BID; type: ADME, organism-based; details: in vivo
Hepatitis B virus [3] = assay: Antiviral activity against HBV infected HBVcircle mouse model assessed as reduction in HBsAg levels in mouse serum at 300 mg/kg, po bid treated for 3 weeks and measured up to 56 days; type: functional, organism-based
[4] = AUC (0 to 12 hrs) in C3H/J mouse at 300 mg/kg, po by LC-MS/MS analysis; type: ADME, organism-based; design: time < 12 hr, dose 300 mg/kg, route po; details: in vivo
[5] = Cmax in C3H/J mouse plasma at 20 mg/kg, po by LC-MS/MS analysis; type: ADME, organism-based; design: dose 20 mg/kg, route po
[6] = Half life in C3H/J mouse at 100 mg/kg, po by LC-MS/MS analysis; type: ADME, organism-based; details: in vivo
[7] = Toxicity in C3H/J mouse assessed as tolerability at 100 to 300 mg/kg BID for 5 days; type: organism-based; details: in vivo, 120 h, dose 100-300 mg/kg, time 5 day
[8] = Metabolic stability in mouse hepatocytes assessed as intrinsic clearance; type: ADME, cell-based, Hepatocyte; details: read-out: CLH
[9] = Tmax in C3H/J mouse at 100 mg/kg, po by LC-MS/MS analysis; type: ADME, organism-based; details: in vivo
[10] = fCmin in HBVcircle mouse model at 100 mg/kg BID; type: ADME, organism-based; details: in vivo
Hepatitis B virus [11] = assay: Antiviral activity against HBV infected in human HepDES19 cells assessed as reduction in HBV cccDNA production by measuring inhibition of HBeAg secretion at 0.3 to 30 uM by southern blot analysis; type: functional, organism-based; details: dose 0.3-30 µM
[12] = Octanol-aqueous buffer distribution coefficient, log D of the compound at pH 7.4 by CAMDIS assay; type: physicochemical
[13] = Dose normalized AUC (0 to 24 hrs) in C3H/J mouse at 100 mg/kg, po by LC-MS/MS analysis; type: ADME, organism-based; details: in vivo
[14] = Tmax in C3H/J mouse at 5 mg/kg, po by LC-MS/MS analysis; type: ADME, organism-based; details: in vivo
[15] = AUC (0 to infinity) in C3H/J mouse at 5 mg/kg, po by LC-MS/MS analysis; type: ADME, organism-based; design: time infinity, dose 5 mg/kg, route po; details: in vivo
[16] = Cmax in C3H/J mouse plasma at 100 mg/kg, po by LC-MS/MS analysis; type: ADME, organism-based; design: dose 100 mg/kg, route po
[17] = Tmax in C3H/J mouse at 20 mg/kg, po by LC-MS/MS analysis; type: ADME, organism-based; details: in vivo
[18] = Dose normalized Cmax in C3H/J mouse at 100 mg/kg, po by LC-MS/MS analysis; type: ADME, organism-based; details: in vivo
[19] = fCmin in HBVcircle mouse model at 300 mg/kg BID; type: ADME, organism-based; details: in vivo
[20] = Dose normalized Cmax in C3H/J mouse at 20 mg/kg, po by LC-MS/MS analysis; type: ADME, organism-based; details: in vivo
[21] = Half life in C3H/J mouse at 5 mg/kg, po by LC-MS/MS analysis; type: ADME, organism-based; details: in vivo
[22] = Dose normalized AUC (0 to 24 hrs) in C57BL/6 mouse at 5 mg/kg, po by LC-MS/MS analysis; type: ADME, organism-based; details: in vivo
[23] = fCaverage in HBVcircle mouse model at 100 mg/kg QD; type: ADME, organism-based; details: in vivo
[24] = Tmax in C3H/J mouse at 300 mg/kg, po by LC-MS/MS analysis; type: ADME, organism-based; details: in vivo
[25] = Half life in C3H/J mouse at 20 mg/kg, po by LC-MS/MS analysis; type: ADME, organism-based; details: in vivo
Hepatitis B virus [26] = assay: Antiviral activity against HBV infected in human HepDES19 cells assessed as reduction in HBV cccDNA production by measuring inhibition of HBeAg secretion incubated for 5 days by ELISA; type: functional, organism-based; details: HepDES19, 120 h
[27] = AUC (0 to infinity) in C3H/J mouse at 20 mg/kg, po by LC-MS/MS analysis; type: ADME, organism-based; design: time infinity, dose 20 mg/kg, route po; details: in vivo
Hepatitis B virus [28] = assay: Antiviral activity against HBV infected in human primary hepatocyte cells assessed as reduction in HBV cccDNA production by measuring inhibition of HBsAg secretion measured after 48 hrs by ELISA; type: functional, organism-based
[29] = fCmax in HBVcircle mouse model at 100 mg/kg QD; type: ADME, organism-based; details: in vivo
[30] = Dose normalized Cmax in C3H/J mouse at 5 mg/kg, po by LC-MS/MS analysis; type: ADME, organism-based; details: in vivo
[31] = fCmin in HBVcircle mouse model at 100 mg/kg QD; type: ADME, organism-based; details: in vivo
[32] = fCaverage in HBVcircle mouse model at 300 mg/kg BID; type: ADME, organism-based; details: in vivo
[33] = Permeability of the compound by PAMPA analysis; type: ADME; details: read-out: permeability
[34] = Dose normalized Cmax in C3H/J mouse at 300 mg/kg, po by LC-MS/MS analysis; type: ADME, organism-based; details: in vivo
[35] = fCmax in HBVcircle mouse model at 300 mg/kg BID; type: ADME, organism-based; details: in vivo
Hepatitis B virus [36] = assay: Antiviral activity against HBV infected HBVcircle mouse model assessed as reduction in cccDNA levels in mouse liver at 300 mg/kg, po bid treated for 3 weeks and measured up to 56 days by qPCR analysis; type: functional, organism-based
[37] = Cmax in C3H/J mouse plasma at 300 mg/kg, po by LC-MS/MS analysis; type: ADME, organism-based; design: dose 300 mg/kg, route po
[38] = AUC (0 to infinity) in C3H/J mouse at 100 mg/kg, po by LC-MS/MS analysis; type: ADME, organism-based; design: time infinity, dose 100 mg/kg, route po; details: in vivo
[39] = Dose normalized AUC (0 to 12 hrs) in C3H/J mouse at 300 mg/kg, po by LC-MS/MS analysis; type: ADME, organism-based; details: in vivo
[40] = Dose normalized AUC (0 to 24 hrs) in C3H/J mouse at 20 mg/kg, po by LC-MS/MS analysis; type: ADME, organism-based; details: in vivo
[41] = fCaverage in HBVcircle mouse model at 100 mg/kg BID; type: ADME, organism-based; details: in vivo
[42] = Aqueous solubility of the compound; type: physicochemical; details: buffer
Hepatitis B virus [43] = assay: Antiviral activity against HBV infected in human HepG2 cells assessed as reduction in HBeAg secretion incubated for 5 days by counter screen assay; type: functional, organism-based; details: HepG2, 120 h
Hepatitis B virus [44] = assay: Antiviral activity against HBV infected HBVcircle mouse model assessed as reduction in HBeAg levels in mouse serum at 300 mg/kg, po bid treated for 3 weeks and measured up to 56 days; type: functional, organism-based

SMILES: O=C(O)[C@@H]1CCN(c2ccc3c(=O)c4cccc(Cl)c4oc3c2)C1
- Cmax [1]: 828 ng/mL
- fCmax [2]: 1151 nM
- Activity (Hepatitis B virus [3]): Active
- AUC(0-t) at 12 h [4]: 453000 ng·h/mL
- Cmax [5]: 8160 ng/mL
- half-life [6]: 1.82 h
- Activity [7]: Non-Toxic
- CLint scaled [8]: 51.9 mL/min/kg
- Tmax [9]: 0.5 h
- fCmin [10]: 20.7 nM
- Activity (Hepatitis B virus [11]): Active
- logD [12]: 1
- AUC/dose [13]: 1200 (ng·h/mL)/(mg/kg)
- Tmax [14]: 0.25 h
- AUC(0-inf) [15]: 857 ng·h/mL
- Cmax [16]: 32200 ng/mL
- Tmax [17]: 0.5 h
- Cmax/dose [18]: 322 ng/mL
- fCmin [19]: 62.2 nM
- Cmax/dose [20]: 408 ng/mL
- half-life [21]: 3.46 h
- AUC/dose [22]: 1042 ng·h/mL
- f(Cave) [23]: 178 nM
- Tmax [24]: 2.67 h
- half-life [25]: 3.45 h
- IC50 (Hepatitis B virus [26]): 580 nM
- AUC(0-inf) [27]: 11800 ng·h/mL
- IC50 (Hepatitis B virus [28]): 1150 nM
- fCmax [29]: 1151 nM
- Cmax/dose [30]: 166 ng/mL
- fCmin [31]: 0.23 nM
- f(Cave) [32]: 1053 nM
- Papp [33]: 2.82 ×10⁻⁶ cm/s
- Cmax/dose [34]: 200 ng/mL
- fCmax [35]: 3.452 µM
- Activity (Hepatitis B virus [36]): Active
- Cmax [37]: 59900 ng/mL
- AUC(0-inf) [38]: 120000 ng·h/mL
- AUC/dose [39]: 1510 (ng·h/mL)/(mg/kg)
- AUC/dose [40]: 591 (ng·h/mL)/(mg/kg)
- f(Cave) [41]: 351 nM
- solubility [42]: > 452 µg/mL
- IC50 (Hepatitis B virus [43]): > 50000 nM
- Activity (Hepatitis B virus [44]): Active
